Tests used:
[1] = tested on: lysine-insensitive AKIII (mutant lysC genes M2, M3, M4); experiment: Inhibition by lysine of AKIII encoded by mutant lysC genes (lysine-resistant clones); type: biochemical, E. coli; details: 15 mM lysine; three of six lysine-resistant plasmids
AKII-HDHII (AK activity) = target: T1, AKII-HDHII (AK activity) (Escherichia coli, UniProt P00562); experiment: Inhibition of AK activity of clone 5 extract (metL, AKII-HDHII) by pathway end-products; type: biochemical, E. coli; details: 30 mM end-product; extract from clone 5
T1 construct: made in house; host or cells: E. coli BL21(DE3), pBT430-derived expression vector; sonicated cell extract of clone 5 (pBT718)
T1 sequence (P00562 other isoform, or with tags, fused parts or gaps): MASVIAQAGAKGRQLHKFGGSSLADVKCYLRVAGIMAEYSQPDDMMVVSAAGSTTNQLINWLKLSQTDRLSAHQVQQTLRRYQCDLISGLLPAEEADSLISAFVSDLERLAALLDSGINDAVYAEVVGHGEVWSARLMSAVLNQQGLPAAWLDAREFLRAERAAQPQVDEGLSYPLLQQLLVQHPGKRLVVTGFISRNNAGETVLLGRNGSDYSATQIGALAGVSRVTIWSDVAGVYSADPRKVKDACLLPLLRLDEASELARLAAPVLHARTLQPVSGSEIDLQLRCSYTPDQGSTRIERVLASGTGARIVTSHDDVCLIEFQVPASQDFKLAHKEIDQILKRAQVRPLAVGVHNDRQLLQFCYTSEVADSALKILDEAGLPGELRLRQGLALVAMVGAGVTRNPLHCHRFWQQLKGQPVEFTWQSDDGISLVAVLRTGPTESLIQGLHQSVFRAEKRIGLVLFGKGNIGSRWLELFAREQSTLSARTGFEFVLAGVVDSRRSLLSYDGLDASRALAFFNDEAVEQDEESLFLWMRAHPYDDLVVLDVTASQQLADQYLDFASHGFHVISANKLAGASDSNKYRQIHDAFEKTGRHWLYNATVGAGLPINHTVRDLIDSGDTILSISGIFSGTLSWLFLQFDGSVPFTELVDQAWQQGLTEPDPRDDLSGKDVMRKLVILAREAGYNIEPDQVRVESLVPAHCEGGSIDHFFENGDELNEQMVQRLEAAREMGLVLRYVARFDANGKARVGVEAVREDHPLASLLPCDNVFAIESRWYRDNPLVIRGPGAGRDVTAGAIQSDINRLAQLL
Experimental: (§1) Cultures were grown in TB medium containing ampicillin (100 mg/L) at 37° C. overnight. The cells were collected by centrifugation and resuspended in 1/25th the original culture volume in 50 mM NaCl; 50 mM Tris-Cl, pH 7.5; 1 mM EDTA, and frozen at -20° C., thawed at 37° C. and sonicated, in an ice-water bath, to lyse the cells. The lysate was centrifuged at 4° C. for 5 min at 12,000 rpm. The supernatant was removed and the pellet was resuspended in the above buffer.
(§2) Assay mix (for 12×1.0 mL or 48×0.25 mL assays):
(§3) Each 1.5 ml eppendorf assay tube contains: […]
(§4) Spin for 2 min in eppendorf centrifuge tube.
(§5) Two extracts also had high levels of AK enzyme activity. These two extracts were then tested for inhibition of AK or HDH activity by the pathway end-products, lys, thr and met.

wild type AKIII = target: T2, wild type AKIII (Escherichia coli, UniProt P08660); experiment: Inhibition of wild type AKIII aspartokinase activity by lysine; type: biochemical, E. coli
T2 construct: made in house; host or cells: E. coli Gif106M1 transformed with pBT436 (the plasmid of the cloned wild type lysC gene)
T2 sequence (P08660 2-449): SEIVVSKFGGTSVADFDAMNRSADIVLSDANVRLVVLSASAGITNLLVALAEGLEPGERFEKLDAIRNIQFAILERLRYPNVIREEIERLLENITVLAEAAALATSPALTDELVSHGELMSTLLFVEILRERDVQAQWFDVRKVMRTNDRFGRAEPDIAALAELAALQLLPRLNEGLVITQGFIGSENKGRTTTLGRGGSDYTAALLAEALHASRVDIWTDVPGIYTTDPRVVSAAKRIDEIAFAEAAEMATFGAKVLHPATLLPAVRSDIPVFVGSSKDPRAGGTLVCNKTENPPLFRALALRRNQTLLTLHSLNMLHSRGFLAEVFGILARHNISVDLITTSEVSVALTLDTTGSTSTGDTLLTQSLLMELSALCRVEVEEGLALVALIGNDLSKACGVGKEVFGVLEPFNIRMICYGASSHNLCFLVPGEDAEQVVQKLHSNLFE
Experimental: Single colonies of Gif106M1 transformed with pBT436 were picked and resuspended in 200 μL of a mixture of 100 μL 1% lysine plus 100 μL of M9 media. The entire cell suspension containing 10^7 -10^8 cells was spread on a petri dish containing M9 media supplemented with the arginine, isoleucine, and ampicillin. Sixteen petri dishes were thus prepared. From 1 to 20 colonies appeared on 11 of the 16 petri dishes. One or two (if available) colonies were picked and retested for lysine resistance and from this nine lysine-resistant clones were obtained. Plasmid DNA was prepared from eight of these and re-transformed into Gif106M1 to determine whether the lysine resistance determinant was plasmid-borne. Six of the eight plasmid DNAs yielded lysine-resistant colonies. Three of these six carried lysC genes encoding AKIII that was uninhibited by 15 mM lysine, whereas wild type AKIII is 50% inhibited by 0.3-0.4 mM lysine and >90% inhibited by 1 mM lysine (see Example 2 for details).
as §2, §3, §4

[2] = tested on: E. coli strain Gif106M1 transformed with pBT436; experiment: Growth inhibition of Gif106M1 transformed with pBT436 on supplemented M9 media; type: cell-based; details: M9 media with arginine, isoleucine, ampicillin; reversed by threonine plus methionine
Description: To establish that the cloned lysC gene was functional, pBT436 was transformed into E. coli strain Gif106M1 (E. coli Genetic Stock Center strain CGSC-5074) which has mutations in each of the three E. coli AK genes [Theze et al. (1974) J. Bacteriol. 117:133-143]. This strain lacks all AK activity and therefore requires diaminopimelate (a precursor to lysine which is also essential for cell wall biosynthesis), threonine and methionine.
Addition of lysine (or diaminopimelate which is readily converted to lysine in vivo) at a concentration of approximately 0.2 mM to the growth medium inhibits the growth of Gif106M1 transformed with pBT436.M9 media [see Sambrook et al. (1989) Molecular Cloning: a Laboratory Manual, Cold Spring Harbor Laboratory Press] supplemented with the arginine and isoleucine, required for Gif106M1 growth, and ampicillin, to maintain selection for the pBT436 plasmid, was used. This inhibition is reversed by addition of threonine plus methionine to the growth media. […] This property of pBT436-transformed Gif106M1 was used to select for mutations in lysC that encoded lysine-insensitive AKIII.

[3] = target: T3, AKII-HDHII (HDH activity) (Escherichia coli, UniProt P00562); experiment: Inhibition of HDH activity of clone 5 extract (metL, AKII-HDHII) by pathway end-products; type: biochemical, E. coli; details: 30 mM end-product; extract from clone 5
T3 construct: made in house; host or cells: E. coli BL21(DE3), pBT430-derived expression vector; sonicated cell extract of clone 5 (pBT718)
T3 sequence (P00562 other isoform, or with tags, fused parts or gaps): as the sequence (P00562 other isoform, or with tags, fused parts or gaps) above
Experimental: as §1
The supernatant fractions were assayed for HDH enzyme activities to identify clones expressing functional proteins. HDH activity was assayed as shown below: […]
Make Mixture of above reagents with amounts multiplied by number of assays. Use 0.9 mls of mix for 1 ml assay; 180 μl of mix for 0.2 ml assay in microtiter dish
to 1/2 the assay mix; remaining 1/2 lacks ASA to serve as blank
Add enzyme extract last to start reaction. Incubate at ~30° C.; monitor NADPH oxidation at […]. 1 unit oxidizes 1 μmol NADPH/min at 30° C. in the 1 ml reaction.
as §5

## NCCCC[C@H](N)C(=O)O [lysine]
[1]
  inhibition of AKIII encoded by mutant lysC genes: uninhibited
AKII-HDHII (AK activity)
  inhibition of AK activity: Neither the AK nor the HDH activity of the extract from clone 5 was inhibited
Wild type AKIII; read-out: inhibition of wild type AKIII
  inhibition at 1000 µM: > 90%
Wild type AKIII; wild type AKIII from cloned lysC (pBT436), read-out: lysine concentration giving 50% inhibition of wild type AKIII
  IC50: 300 to 400 µM
[2]
  concentration in the growth medium that inhibits growth: approximately 0.2 mM
[3]
  inhibition of HDH activity: Neither the AK nor the HDH activity of the extract from clone 5 was inhibited

## C[C@@H](O)[C@H](N)C(=O)O [thr, threonine]
AKII-HDHII (AK activity)
  inhibition of AK activity: Neither the AK nor the HDH activity of the extract from clone 5 was inhibited
[3]
  inhibition of HDH activity: Neither the AK nor the HDH activity of the extract from clone 5 was inhibited

## NC(CCCC(N)C(=O)O)C(=O)O (centres unmarked) [diaminopimelate]
[2]
  concentration in the growth medium that inhibits growth: approximately 0.2 mM

## CSCC[C@H](N)C(=O)O [met, methionine]
AKII-HDHII (AK activity)
  inhibition of AK activity: Neither the AK nor the HDH activity of the extract from clone 5 was inhibited
[3]
  inhibition of HDH activity: Neither the AK nor the HDH activity of the extract from clone 5 was inhibited

— US5912414A, “Nucleic acid fragments, chimeric genes and methods for increasing the methionine content of the seeds of plants” (priority 1996, dated 1999)
